Reference: patent US20260041653A1, “AN HDAC INHIBITOR FOR TREATING CANCER WITH A MODIFIED STK11 ACTIVITY OR EXPRESSION” (Tango Therapeutics, Inc., priority 2022, published 2026)
Where two headings read alike, the source gives them in different places.

Columns and labels:
hERG potassium channel = target: T1, hERG potassium channel (Homo sapiens, UniProt Q12809); assay: hERG manual patch-clamp in HEK 293 cells; assay type: cell-based
T1 construct: expressed in transfected cells
Protocol: The effects of Compound I on a cloned human ether-à-go-go-related gene (hERG) potassium channels stably expressed in human embryonic kidney (HEK) 293 cells were measured using manual patch-clamp technique. Briefly, Compound I was soluble at 100 uM in 0.3% DMSO, pH 6.9. A does range-finding (DRF) assay was performed with Compound I at 3. 30, and 100 uM concentrations.

acetyl-histone H2B = assay: PK/PD study, acetyl-histone H2B in PBMC by flow cytometry; assay type: in vivo, C57BL/6 mice; settings: 300 mg/kg QD, 2 days; 24 hours after last dose; vs vehicle control
Protocol: In a separate PK/PD study, MC38 tumor-bearing female C57BL/6 mice (12/group) were assigned to treatment groups with similar mean tumor volumes of approximately 430 mm^3 and treated with vehicle (5% N,N-dimethylacetamide [DMA]+30% polyethylene glycol [PEG] 400+65% of 30% 2-hydroxypropyl-beta-cyclodextrin [HP-β-CD] in water) or Compound I at 30, 100, and 300 mg/kg once daily (QD) for 2 days. Plasma samples were collected at 1, 2, 8 and 24 hours after last dose and analyzed for Compound I concentrations. Peripheral blood mononuclear cells (PBMC) and tumor samples were harvested at 2, 8, and 24 hours after last dose. The PBMC samples were processed for determination of mean florescent level of acetyl-histone H2B by flow cytometry. Tumor samples were processed for determination of protein levels of acetyl-histone H3 by Western blot.

T1 sequence (Q12809 whole entry): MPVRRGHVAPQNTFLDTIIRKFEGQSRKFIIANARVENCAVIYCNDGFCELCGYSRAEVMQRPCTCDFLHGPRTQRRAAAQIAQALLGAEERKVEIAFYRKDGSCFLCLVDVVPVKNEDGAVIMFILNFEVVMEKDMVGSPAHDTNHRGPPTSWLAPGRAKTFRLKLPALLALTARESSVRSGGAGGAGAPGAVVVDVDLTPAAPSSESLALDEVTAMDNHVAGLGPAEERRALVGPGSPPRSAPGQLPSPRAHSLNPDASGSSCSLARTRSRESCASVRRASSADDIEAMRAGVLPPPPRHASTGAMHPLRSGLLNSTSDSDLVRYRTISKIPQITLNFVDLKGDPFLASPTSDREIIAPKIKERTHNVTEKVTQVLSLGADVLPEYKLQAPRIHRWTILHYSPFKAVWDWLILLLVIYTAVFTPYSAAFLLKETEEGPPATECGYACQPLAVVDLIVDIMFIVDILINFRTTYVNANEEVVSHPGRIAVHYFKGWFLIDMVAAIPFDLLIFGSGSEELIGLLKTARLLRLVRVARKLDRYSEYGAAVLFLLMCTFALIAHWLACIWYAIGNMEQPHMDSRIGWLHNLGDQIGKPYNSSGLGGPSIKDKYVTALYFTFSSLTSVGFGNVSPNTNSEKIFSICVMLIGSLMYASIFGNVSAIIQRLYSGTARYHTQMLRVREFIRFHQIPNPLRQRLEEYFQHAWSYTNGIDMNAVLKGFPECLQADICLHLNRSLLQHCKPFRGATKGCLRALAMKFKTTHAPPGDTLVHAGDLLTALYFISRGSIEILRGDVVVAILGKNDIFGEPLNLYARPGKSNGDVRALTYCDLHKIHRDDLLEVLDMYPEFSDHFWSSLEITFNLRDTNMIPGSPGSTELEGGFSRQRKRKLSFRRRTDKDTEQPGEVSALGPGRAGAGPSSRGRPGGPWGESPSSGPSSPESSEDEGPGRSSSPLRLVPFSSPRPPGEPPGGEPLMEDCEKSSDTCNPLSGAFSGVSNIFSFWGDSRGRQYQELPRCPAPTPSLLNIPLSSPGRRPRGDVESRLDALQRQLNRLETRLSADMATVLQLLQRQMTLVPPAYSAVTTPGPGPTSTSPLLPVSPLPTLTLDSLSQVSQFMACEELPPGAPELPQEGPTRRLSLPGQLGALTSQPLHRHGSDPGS

For `C[S@@](=N)(=O)c1ccc(C(=O)Nc2cc(-c3ccc(F)cc3)ccc2N)cc1` [Compound I, (R)—N-(4-amino-4′-fluoro-[1,1′-biphenyl]-3-yl)-4-(S-methylsulfonimidoyl)benzamide], the IC50 (hERG potassium channel; Table 5, read-out: hERG IC50) was over 30 µM, the IC50 (hERG potassium channel; definitive hERG assay, replicates of 3, read-out: hERG potassium current IC50) was 71.1 µM and the inhibition at 3 µM (hERG potassium channel; human, HEK 293 cells stably expressing hERG, 3 uM, dose range-finding assay, read-out: inhibition of hERG currents) was 15.7%. For the same compound, the inhibition at 30 µM (hERG potassium channel; human, HEK 293 cells stably expressing hERG, 30 uM, dose range-finding assay, read-out: inhibition of hERG currents) was 45.9%, the inhibition at 100 µM (hERG potassium channel; human, HEK 293 cells stably expressing hERG, 100 uM, dose range-finding assay, read-out: inhibition of hERG currents) was 73.6% and the “maximal induction of histone acetylation in PBMC” value (acetyl-histone H2B) was 8 fold.
